Common to all, as to type: functional, cell-based
For assay [1], the system named is HEK293-A. The assay can be described thus: Regulation of autophagy in HEK293-A cells expressing GFP-tagged LC3 assessed as increase in green fluorescence at 10 uM incubated for 24 hrs by confocal microscopy. As to conditions: Homo sapiens.
Assay [2] has as its system HEK293-A. The assay is described as follows: Cytotoxicity against HEK293-A cells expressing GFP-tagged LC3 assessed as cell viability at 10 uM incubated for 24 hrs by MTT assay. The note with it: Homo sapiens.
The subject of assay [3] is IMR-90. The assay is described as follows: Induction of autophagy in human IMR-90 cells expressing GFP-mCherry-tagged LC3 assessed as increase in red puncta at 10 uM incubated for 24 hrs by DAPI staining based confocal microscopy.
Assay [4] deals with IMR-90. The assay is described as follows: Induction of autophagic flux in human IMR-90 cells expressing GFP-mCherry-tagged LC3 assessed as accumulation of LC3B-II incubated for 6 hrs in presence of chloroquine by Western blot analysis. The note with it: dose 1-20 µM. (In general: Immunoblotting shows a protein as a band on a membrane.)

Activity calls are given as the source filed them. No cut-off for these calls is given here.

`CCCCCCCC[C@@H](COC(C)=O)[C@@H]1OC(=O)[C@H](CO)NC(=O)[C@H](C(=O)c2c[nH]c3ccccc23)NC(=O)[C@@H](CCC(=O)OCC)NC(=O)[C@H]1C`: the outcome in the assay with HEK293-A [1] was Active. The outcome in the assay with HEK293-A [2] was inactive.
Consider `CCCCCCCC[C@@H](C)[C@@H]1OC(=O)[C@H](CO)NC(=O)/C(=C/c2c[nH]c3ccccc23)NC(=O)[C@@H](CCC(=O)O)NC(=O)[C@H]1C`, for which the outcome in the assay on HEK293-A [1] and in the assay with IMR-90 [3] was Active. In the assay with HEK293-A [2], the outcome was inactive.
With `C=C1C(=O)O[C@H](CCCCCCCCCC)[C@H]1[C@@H](O)C(=O)OCC`, in the assay on HEK293-A [2], the outcome was inactive.
For the compound `CCCCCCCC[C@@H]1COC(=O)[C@H](CO)NC(=O)[C@H](C(=O)c2c[nH]c3ccccc23)NC(=O)[C@@H](CCC(=O)O)NC(=O)[C@@H](C)[C@H]1O`, the result with HEK293-A [1] was Active. Moreover, the result in the assay with HEK293-A [2] was inactive.
As to `CCCCCCCC[C@@H](C)[C@@H]1OC(=O)[C@H](CO)NC(=O)[C@H](Cc2c[nH]c3ccccc23)NC(=O)[C@@H](CCC(=O)O)NC(=O)[C@H]1C`, the outcome in the assay on HEK293-A [1] and with IMR-90 [3] was Active. Further, the outcome in the assay with HEK293-A [2] was inactive.
`CCCCCCCC[C@@H](C)[C@@H]1OC(=O)[C@H](CO)NC(=O)[C@H](C(=O)c2c[nH]c3ccccc23)NC(=O)[C@@H](CCC(=O)O)NC(=O)[C@H]1C`: the result in the assay on HEK293-A [1] was Active. Also, in the assay on HEK293-A [2], the result was inactive.
Turning to `CCCCCCCC[C@@H](COC(C)=O)[C@@H]1OC(=O)[C@H](CO)NC(=O)[C@H](C(=O)c2c[nH]c3ccccc23)NC(=O)[C@@H](CCC(=O)O)NC(=O)[C@H]1C`, the outcome in the assay with HEK293-A [1] and in the assay with IMR-90 [3] was Active. The Activity entry in the assay with IMR-90 [4] was “Dose-dependent-effect”. In the assay on HEK293-A [2], the outcome was inactive.
With `CCCCCCCCCCCC[C@H](O)[C@]1(O)[C@@H](COC)C(=O)O[C@H]1C(=O)O`, the result with HEK293-A [2] was inactive.
On the same count and under the same terms, the entry for `CCCCCCCCCC[C@H](O)C1=C(COCC)C(=O)OC1` is “inactive”; for `O=C(c1c[nH]c2ccccc12)C(O)CO` (stereo not drawn) it is “inactive”; for `C=C1C(=O)O[C@@H](C(=O)O)[C@@H]1CCCCCCCCCCC` it is “Active”.
With `CCCCCCCC[C@@H](C)[C@@H]1OC(=O)[C@H](CO)NC(=O)[C@H](C(=O)c2c[nH]c3ccccc23)NC(=O)[C@@H](CCC(=O)OCC)NC(=O)[C@H]1C`, the outcome in the assay on HEK293-A [1] was Active. For the same compound, the outcome with HEK293-A [2] was inactive.

The values are drawn from ChEMBL document CHEMBL6153127, “Cyclodepsipeptides and Fatty Acid Lactones from the Freshwater-Derived Fungus, Talaromyces gwangjuensis, and Their Potential as Autophagy Activators” (J Nat Prod, 2025).
